Results reported in patent publication US20170037111A1, “Novel peptides and combination of peptides for use in immunotherapy against ovarian cancer and other cancers” (immatics biotechnologies GmbH, priority 2015, published 2017).

Assays:
CD8+ T cells = assay: In vitro T-cell priming (immunogenicity) with aAPCs loaded with peptide/MHC and anti-CD28, pMHC multimer readout; format: cell-based, human; conditions: for Wells positive [%]: in vitro immunogenicity, HLA-A*02 restricted peptides, positive wells among evaluable
Text: In order to obtain information regarding the immunogenicity of the TUMAPs of the present invention, the inventors performed investigations using an in vitro T-cell priming assay based on repeated stimulations of CD8+ T cells with artificial antigen presenting cells (aAPCs) loaded with peptide/MHC complexes and anti-CD28 antibody.
In order to perform in vitro stimulations by artificial antigen presenting cells loaded with peptide-MHC complex (pMHC) and anti-CD28 antibody, the inventors first isolated CD8+ T cells from fresh HLA-A*02 leukapheresis products via positive selection using CD8 microbeads (Miltenyi Biotec, Bergisch-Gladbach, Germany) of healthy donors obtained from the University clinics Mannheim, Germany, after informed consent.
PBMCs and isolated CD8+ lymphocytes were incubated in T-cell medium (TCM) until use consisting of RPMI-Glutamax (Invitrogen, Karlsruhe, Germany) supplemented with 10% heat inactivated human AB serum (PAN-Biotech, Aidenbach, Germany), 100 U/ml Penicillin/100 μg/ml Streptomycin (Cambrex, Cologne, Germany), 1 mM sodium pyruvate (CC Pro, Oberdorla, Germany), 20 μg/ml Gentamycin (Cambrex). 2.5 ng/ml IL-7 (PromoCell, Heidelberg, Germany) and 10 U/ml IL-2 (Novartis Pharma, Nürnberg, Germany) were also added to the TCM at this step.
Generation of pMHC/anti-CD28 coated beads, T-cell stimulations and readout was performed in a highly defined in vitro system using four different pMHC molecules per stimulation condition and 8 different pMHC molecules per readout condition.
The purified co-stimulatory mouse IgG2a anti human CD28 Ab 9.3 (Jung et al., 1987) was chemically biotinylated using Sulfo-N-hydroxysuccinimidobiotin as recommended by the manufacturer (Perbio, Bonn, Germany). Beads used were 5.6 μm diameter streptavidin coated polystyrene particles (Bangs Laboratories, Illinois, USA).
pMHC used for positive and negative control stimulations were A*0201/MLA-001 (peptide […] (SEQ ID NO. 664) from modified Melan-A/MART-1) and A*0201/DDX5-001 ([…] from DDX5, SEQ ID NO. 665), respectively.
800.000 beads/200 μl were coated in 96-well plates in the presence of 4×12.5 ng different biotin-pMHC, washed and 600 ng biotin anti-CD28 were added subsequently in a volume of 200 μl. Stimulations were initiated in 96-well plates by co-incubating 1×10^6 CD8+ T cells with 2×10^5 washed coated beads in 200 μl TCM supplemented with 5 ng/ml IL-12 (PromoCell) for 3 days at 37° C. Half of the medium was then exchanged by fresh TCM supplemented with 80 U/ml IL-2 and incubating was continued for 4 days at 37° C. This stimulation cycle was performed for a total of three times. For the pMHC multimer readout using 8 different pMHC molecules per condition, a two-dimensional combinatorial coding approach was used as previously described (Andersen et al., 2012) with minor modifications encompassing coupling to 5 different fluorochromes. Finally, multimeric analyses were performed by staining the cells with Live/dead near IR dye (Invitrogen, Karlsruhe, Germany), CD8-FITC antibody clone SK1 (BD, Heidelberg, Germany) and fluorescent pMHC multimers. For analysis, a BD LSRII SORP cytometer equipped with appropriate lasers and filters was used. Peptide specific cells were calculated as percentage of total CD8+ cells. Evaluation of multimeric analysis was done using the FlowJo software (Tree Star, Oregon, USA). In vitro priming of specific multimer+CD8+ lymphocytes was detected by comparing to negative control stimulations.
Exemplary flow cytometry results after TUMAP-specific multimer staining for two peptides of the invention are shown in FIG. 3 together with corresponding negative controls.

HLA-A*02:01 = HLA-A*02:01 (Homo sapiens, UniProt P04439, D140Y/D185E/D98H/E176V/E277Q/G131W/G231S/I119V/I121R/I166T/I218V/L300P/L318F/N151K/N90K/P208A/P217A/Q86G/Q94H/R138H/R169H/T345S); assay: MHC binding assay (UV-ligand exchange, β2m ELISA, peptide exchange yield); conditions: MHC class I binding score; binding to HLA-A*02:01 ranged by peptide exchange yield (UV-ligand exchange, β2m ELISA)
Procedure, shortened: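 Binding is expressed as peptide exchange yield: stabilized MHC complexes were quantified by β2m ELISA, with a 450 nm TMB read-out on streptavidin-coated plates. Complexes came from UV-ligand exchange, where UV irradiation cleaves a photolabile peptide so the candidate peptide can load.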

Substance	Wells positive [%] (CD8+ T cells)	Peptide exchange (HLA-A*02:01)	donors (CD8+ T cells; in vitro immunogenicity of HLA class I peptides, percentage of positive donors)	wells (CD8+ T cells; in vitro immunogenicity of HLA class I peptides, percentage of positive wells)
40 (TLLVKVFSV; listed as Homo sapiens) [compound 40]	″++″ (20%-49% = ++)	″+++″ (≧50% = +++)	–	–
48 (ALAELYEDEV; listed as Homo sapiens) [compound 48]	″+″ (<20% = +)	″+++″ (≧50% = +++)	–	–
49 (YLPAVFEEV; listed as Homo sapiens) [compound 49]	″++″ (20%-49% = ++)	″+++″ (≧50% = +++)	–	–
56 (KLYEGIPVLL; listed as Homo sapiens) [compound 56]	″+″ (<20% = +)	″++++″ (≧75% = ++++)	–	–
60 (SLTIDGIYYV; listed as Homo sapiens) [compound 60]	″++++″ (> = 70% = ++++)	″++++″ (≧75% = ++++)	–	–
61 (FLQGYQLHL; listed as Homo sapiens) [compound 61]	″++″ (20%-49% = ++)	″++++″ (≧75% = ++++)	–	–
79 (SLFIGEKAVLL; listed as Homo sapiens) [compound 79]	″+″ (<20% = +)	″+++″ (≧50% = +++)	–	–
108 (ALFPGVALLLA; listed as Homo sapiens) [compound 108]	″++″ (20%-49% = ++)	″++++″ (≧75% = ++++)	–	–
113 (GLLPTPLFGV; listed as Homo sapiens) [compound 113]	″+″ (<20% = +)	″+++″ (≧50% = +++)	–	–
118 (KLIDNNINV; listed as Homo sapiens) [compound 118]	″+″ (<20% = +)	″+++″ (≧50% = +++)	–	–
141 (YLDFSNNRL; listed as Homo sapiens) [compound 141]	″+″ (<20% = +)	″++″ (≧20% = ++)	–	–
143 (LLLDITPEI; listed as Homo sapiens) [compound 143]	″+″ (<20% = +)	″++++″ (≧75% = ++++)	–	–
150 (RLWEEGEELEL; listed as Homo sapiens) [compound 150]	″+″ (<20% = +)	″+++″ (≧50% = +++)	–	–
152 (ILFEDIFDV; listed as Homo sapiens) [compound 152]	″++″ (20%-49% = ++)	″+++″ (≧50% = +++)	–	–
157 (SLNDEVPEV; listed as Homo sapiens) [compound 157]	″+++″ (50%-69% = +++)	″++″ (≧20% = ++)	–	–
166 (YLNHLEPPV; listed as Homo sapiens) [compound 166]	″++++″ (> = 70% = ++++)	″+++″ (≧50% = +++)	–	–
191 (LLQEGQALEYV; listed as Homo sapiens) [compound 191]	″+++″ (50%-69% = +++)	″++″ (≧20% = ++)	–	–
198 (KTINKVPTV; listed as Homo sapiens) [compound 198]	″++″ (20%-49% = ++)	″+++″ (≧50% = +++)	–	–

Substance	Wells positive [%] (CD8+ T cells)	Peptide exchange (HLA-A*02:01)	donors (CD8+ T cells; in vitro immunogenicity of HLA class I peptides, percentage of positive donors)	wells (CD8+ T cells; in vitro immunogenicity of HLA class I peptides, percentage of positive wells)
199 (ALQDVPLSSV; listed as Homo sapiens) [compound 199]	″+″ (<20% = +)	″+++″ (≧50% = +++)	–	–
215 (QLINHLHAV; listed as Homo sapiens) [compound 215]	″++″ (20%-49% = ++)	″+++″ (≧50% = +++)	–	–
242 (AIAYILQGV; listed as Homo sapiens) [compound 242]	″+++″ (50%-69% = +++)	″++″ (≧20% = ++)	–	–
247 (VLLPNDLLEKV; listed as Homo sapiens) [compound 247]	″+″ (<20% = +)	″+++″ (≧50% = +++)	–	–
283 (ALYIGDGYVIHLA; listed as Homo sapiens) [compound 283]	–	″+++″ (≧50% = +++)	+++ (50%-69% = +++)	+ (<20% = +)
319 (SLEPQIQPV; listed as Homo sapiens) [compound 319]	″+″ (<20% = +)	″++″ (≧20% = ++)	–	–
384 (ILFANPNIFV; listed as Homo sapiens) [compound 384]	″+″ (<20% = +)	″+++″ (≧50% = +++)	–	–
395 (ALALGGIAVV; listed as Homo sapiens) [compound 395]	″+++″ (50%-69% = +++)	″++++″ (≧75% = ++++)	–	–
443 (GLWEIENNPTV; listed as Homo sapiens) [compound 443]	″+″ (<20% = +)	″+++″ (≧50% = +++)	–	–
446 (QLIPALAKV; listed as Homo sapiens) [compound 446]	″++″ (20%-49% = ++)	″+++″ (≧50% = +++)	–	–
454 (KLPPPPPQA; listed as Homo sapiens) [compound 454]	″++″ (20%-49% = ++)	″+++″ (≧50% = +++)	–	–
460 (AMLEKNYKL; listed as Homo sapiens) [compound 460]	″+″ (<20% = +)	″++++″ (≧75% = ++++)	–	–
463 (SLVESHLSDQLTL; listed as Homo sapiens) [compound 463]	″++″ (20%-49% = ++)	″+++″ (≧50% = +++)	–	–
489 (KMWEELPEVV; listed as Homo sapiens) [compound 489]	″+″ (<20% = +)	″+++″ (≧50% = +++)	–	–
499 (KIFDIDEAEEGV; listed as Homo sapiens) [compound 499]	″+″ (<20% = +)	″++″ (≧20% = ++)	–	–
511 (FLDPYCSASV; listed as Homo sapiens) [compound 511]	″+″ (<20% = +)	″++″ (≧20% = ++)	–	–
518 (KLNAEVACV; listed as Homo sapiens) [compound 518]	″++″ (20%-49% = ++)	″+++″ (≧50% = +++)	–	–
603 (FLIEPEHVNTV; listed as Homo sapiens) [compound 603]	″+″ (<20% = +)	″++″ (≧20% = ++)	–	–
